Earlier results in PMC11010885, “Functional Analysis and Tissue-Specific Expression of Calcitonin and CGRP with RAMP-Modulated Receptors CTR and CLR in Chickens” (Animals : an Open Access Journal from MDPI, 2024).

Test system: RAMP1- and RAMP3-derived amylin receptors
Settings: ref [51],[53]; cited from earlier work
Method: In mammals, CTR functions as a receptor for three distinct hormones: CT, CGRP, and amylin (not explored in this study). The specific affinity spectrum is determined by its co-expression with RAMPs. Although CTR alone is a receptor for CT that is involved in bone homeostasis, CTRs in complex with RAMP1–3 are high-affinity receptors for amylin, a peptide involved in the regulation of food intake. […] The CTR + RAMP1 complex is a ...

human CT: human CT, cited from the literature
affinity: low affinity

rat amylin: rat amylin, cited from the literature
affinity: moderate affinity
